Measured values published in patent US20100093811A1 (priority 2007, published 2010).
Counter-ions that a name gives are not always drawn. Like-named read-outs stand apart in the source and are kept apart here.

Experiments:
wild-type HIV-1 protease = wild-type HIV-1 protease (Human immunodeficiency virus type 1 group M subtype B, UniProt P04585); test: Assay for inhibition of microbial expressed HIV protease; type: biochemical
In short: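 Inhibition taken from HPLC (C18) product peak areas after phosphoric acid quench. Reaction: 440 micromolar Val-Ser-Gln-Asn-(betanapthyl)Ala-Pro-Ile-Val peptide, 5 pM E. coli-made protease, 1 h at 30° C, following 30 min room-temperature inhibitor preincubation in pH 5.5 acetate/NaCl/BSA buffer.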

[1] = tested on: acute HIV infection of T-lymphoid cells; test: Assay for inhibition of HIV replication (spread assay); type: cell-based, HIV-1; conditions: Human immunodeficiency virus 1, T-lymphoid; read-out: Spread - IC95
Protocol: • Assay for Inhibition of HIV Replication
Assays for the inhibition of acute HIV infection of T-lymphoid cells were conducted in accordance with Vacca, J. P. et al., Proc. Natl. Acad. Sci. USA 1994, 91: 4096.

[2] = wild-type HIV-1 protease expressed in E. coli, peptide substrate, pH 5.5, read-out: Enzyme Inhibition - IC50

Row | Compound | IC50 (wild-type HIV-1 protease; [2]) [nM] | IC95 [1] [nM] | IC50 (wild-type HIV-1 protease) [nM]
1 | COC(=O)N[C@H](C(=O)N[C@H](CCC[C@@H](CO)N(C)S(=O)(=O)c1ccc(N)cc1)C1CC1)C(c1ccccc1)c1ccccc1 [Example I9, N-{(1R,5S)-5-[[(4-aminophenyl)sulfonyl](methyl)amino]-1-cyclopropyl-6-hydroxyhexyl}-Nα-(methoxycarbonyl)-β-phenyl-L-phenylalaninamide] | 3.2 | 323 | 
2 | CCN([C@H](CO)CCC[C@@H](NC(=O)[C@@H](NC(=O)OC)C(c1ccccc1)c1ccccc1)C1CC1)S(=O)(=O)c1ccc(N)cc1 [Example I10, N-{(1R,5S)-5-[[(4-aminophenyl)sulfonyl](ethyl)amino]-1-cyclopropyl-6-hydroxyhexyl}-Nα-(methoxycarbonyl)-β-phenyl-L-phenylalaninamide] | 0.733 | 105 | 
3 | CC[C@@H](CCC[C@@H](CO)N(CCC(C)C)S(=O)(=O)c1ccc(CO)cc1)NC(=O)[C@@H](NC(=O)OC)C(c1ccccc1)c1ccccc1 [Example J1, N-{(1S,5S)-1-ethyl-6-hydroxy-5-[{[4-(hydroxymethyl)phenyl]sulfonyl}(3-methylbutyl)amino]hexyl}-Nα-(methoxycarbonyl)-β-phenyl-L-phenylalaninamide] | 0.015 | 9 | 
4 | COC(=O)N[C@H](C(=O)N[C@H](CCC[C@@H](CO)N(CCC(C)C)S(=O)(=O)c1ccc(CO)cc1)C(F)(F)F)C(c1ccccc1)c1ccccc1 [Example J2, N-[(1R,55S)-6-hydroxy-5-[{[4-(hydroxymethyl)phenyl]sulfonyl}(3-methylbutyl)amino]-1-(trifluoromethyl)hexyl]-Nα-(methoxycarbonyl)-β-phenyl-L-phenylalaninamide] | 0.012 | 8 | 
5 | COC(=O)N[C@H](C(=O)N[C@H](CCC[C@@H](CO)N(CCC(C)C)S(=O)(=O)c1ccc([C@H](C)O)cc1)C1CC1)C(c1ccc(F)cc1)c1ccc(F)cc1 [Example J3, N-{(1R,5S)-1-cyclopropyl-6-hydroxy-5-[({4-[(1S)-1-hydroxyethyl]phenyl}sulfonyl)(3-methylbutyl)amino]hexyl}-4-fluoro-β-(4-fluorophenyl)-Nα-(methoxycarbonyl)-L-phenylalaninamide] | 0.011 | 25 | 
6 | COC(=O)N[C@H](C(=O)N[C@@H](C)CCC[C@@H](CO)N(CCC(C)C)S(=O)(=O)c1ccc(CO)cc1)C(c1ccccc1)c1ccccc1 [Example J4, N-{(1S,5S)-6-hydroxy-5-[{[4-(hydroxymethyl)phenyl]sulfonyl}(3-methylbutyl)amino]-1-methylhexyl}-Nα-(methoxycarbonyl)-β-phenyl-L-phenylalaninamide] | 0.007 | 6 | 
7 | COC(=O)N[C@H](C(=O)N[C@H](C)CCC[C@@H](CO)N(CCC(C)C)S(=O)(=O)c1ccc(CO)cc1)C(c1ccccc1)c1ccccc1 [Example J5, N-{(1R,5S)-6-hydroxy-5-[{[4-(hydroxymethyl)phenyl]sulfonyl}(3-methylbutyl)amino]-1-methylhexyl}-Nα-(methoxycarbonyl)-β-phenyl-L-phenylalaninamide] | 0.291 | 192 | 
8 | COC(=O)N[C@H](C(=O)N[C@H](CCC[C@@H](CO)N(CCC(C)C)S(=O)(=O)c1ccc(CO)cc1)C(C)(C)C)C(c1ccccc1)c1ccccc1 [Example J6, N-{(1R,5S)-1-tert-butyl-6-hydroxy-5-[{[4-(hydroxymethyl)phenyl]sulfonyl}(3-methylbutyl)amino]hexyl}-Nα-(methoxycarbonyl)-β-pbenyl-L-phenylalaninamide] | 0.976 | 327 | 
9 | COC(=O)N[C@H](C(=O)N[C@@H](CCC[C@@H](CO)N(CCC(C)C)S(=O)(=O)c1ccc(CO)cc1)C(F)(F)F)C(c1ccccc1)c1ccccc1 [Example J7, N-[(1S,5S)-6-hydroxy-5-[{[4-(hydroxymethyl)phenyl]sulfonyl}(3-methylbutyl)amino]-1-(trifluoromethyl)hexyl]-Nα-(methoxycarbonyl)-β-phenyl-L-phenylalaninamide] | 0.623 | 359 | 
10 | COC(=O)N[C@H](C(=O)N[C@H](CCC[C@@H](CO)N(CCC(C)C)S(=O)(=O)c1ccc(CO)cc1)C1CC1)C(c1ccccc1)c1ccccc1 [Example J8, N-{(1R,5S)-1-cyclopropyl-6-hydroxy-5-[{[4-(hydroxymethyl)phenyl]sulfonyl}(3-methylbutyl)amino]hexyl}-Nα-(methoxycarbonyl)-β-phenyl-L-phenylalaninamide] | 0.015 | 10 | 
11 | COC(=O)N[C@H](C(=O)N[C@H](CCC[C@@H](CO)N(CCC(C)C)S(=O)(=O)c1ccc(CO)cc1)C(C)C)C(c1ccccc1)c1ccccc1 [Example J9, N-{(1R,5S)-6-hydroxy-5-[{[4-(hydroxymethyl)phenyl]sulfonyl}(3-methylbutyl)amino]-1-isopropylhexyl}-Nα-(methoxycarbonyl)-β-phenyl-L-phenylalaninamide] | 0.069 | 23 | 
12 | C=C[C@@H](CCC[C@@H](CO)N(CCC(C)C)S(=O)(=O)c1ccc(CO)cc1)NC(=O)[C@@H](NC(=O)OC)C(c1ccccc1)c1ccccc1 [Example J10, N-{(1R,5S)-6-hydroxy-5-[{[4-(hydroxymethyl)phenyl]sulfonyl}(3-methylbutyl)amino]-1-vinylhexyl}-Nα-(methoxycarbonyl)-β-phenyl-L-phenylalaninamide] | 0.005 | 4 | 
13 | C=C[C@H](CCC[C@@H](CO)N(CCC(C)C)S(=O)(=O)c1ccc(CO)cc1)NC(=O)[C@@H](NC(=O)OC)C(c1ccccc1)c1ccccc1 [Example J11, N-{(1S,5S)-6-hydroxy-5-[{[4-(hydroxymethyl)phenyl]sulfonyl}(3-metbylbutyl)amino]-1-vinylhexyl}-Nα-(methoxycarbonyl)-β-phenyl-L-phenylalaninamide] | 0.185 | 107 | 
14 | COC(=O)N[C@H](C(=O)N[C@H](CCC[C@@H](CO)N(CCC(C)C)S(=O)(=O)c1ccc(CO)cc1)C(F)(F)C(F)(F)F)C(c1ccccc1)c1ccccc1 [Example J12, N-[(1R,5S)-6-hydroxy-5-[{[4-(hydroxymethyl)phenyl]sulfonyl}(3-methylbutyl)amino]-1-(pentafluoroethyl)hexyl]-Nα-(methoxycarbonyl)-β-phenyl-L-phenylalaninamide] | 0.036 | 43 | 
15 | C#C[C@@H](CCC[C@@H](CO)N(CCC(C)C)S(=O)(=O)c1ccc(CO)cc1)NC(=O)[C@@H](NC(=O)OC)C(c1ccccc1)c1ccccc1 [Example J13, N-{(1R,5S)-1-ethynyl-6-hydroxy-5-[{[4-(hydroxymethyl)phenyl]sulfonyl}(3-methylbutyl)amino]hexyl}-Nα-(methoxycarbonyl)-β-phenyl-L-phenylalaninamide] | 0.01 | 6 | 
16 | COC(=O)N[C@@H](Cc1ccccc1Cl)C(=O)N[C@H](CCC[C@@H](CO)N(CCC(C)C)S(=O)(=O)c1ccc(CO)cc1)C1CC1 [Example J14, 2-chloro-N-{(1R,5S)-1-cyclopropyl-6-hydroxy-5-[{[4-(hydroxymethyl)phenyl]sulfonyl}(3-methylbutyl)amino]hexyl}-Nα-(methoxycarbonyl)-L-phenylalaninamide] | 0.183 | 63 | 
17 | COC(=O)N[C@@H](Cc1ccccc1Cl)C(=O)N[C@H](CCC[C@@H](CO)N(CCC(C)C)S(=O)(=O)c1ccc([C@H](C)O)cc1)C1CC1 [Example J15, 2-chloro-N-{(1R,5S)-1-cyclopropyl-6-hydroxy-5-[({4-[(1S)-1-hydroxyethyl]phenyl}sulfonyl)(3-methylbutyl)amino]hexyl}-Nα-(methoxycarbonyl)-L-pbenylalaninamide] | 0.372 | 42 | 
18 | COC(=O)N[C@H](C(=O)N[C@H](CCC[C@@H](CO)N(CCC(C)C)S(=O)(=O)c1ccc(CO)cc1)C1CC1)C(c1ccc(F)cc1)c1ccc(F)cc1 [Example J16, N-{(1R,55)-1-cyclopropyl-6-hydroxy-5-[{[4-(hydroxymethyl)phenyl]sulfonyl}(3-methylbutyl)amino]hexyl}-4-fluoro-β-(4-fluorophenyl)-Nα-(methoxycarbonyl)-L-phenylalaninamide] | 0.01 | 25 | 
19 | CC(C)CCN([C@H](CO)CCC[C@@H](NC(=O)[C@@H](N)C(c1ccc(F)cc1)c1ccc(F)cc1)C1CC1)S(=O)(=O)c1ccc(CO)cc1 [Example J17, N-{(1R,5S)-1-cyclopropyl-6-hydroxy-5-[{[4-(hydroxymethyl)phenyl]sulfonyl}(3-methylbutyl)amino]hexyl}-4-fluoro-β-(4-fluorophenyl)-L-phenylalaninamide hydrochloride] |  | 6 | 0.01
20 | CC(C)CCN([C@H](CO)CCC[C@@H](NC(=O)[C@@H](N)C(c1ccc(F)cc1)c1ccc(F)cc1)C1CC1)S(=O)(=O)c1ccc([C@H](C)O)cc1 [Example J18, N-{(1R,5S)-1-cyclopropyl-6-hydroxy-5-[({4-[(1S)-1-hydroxyethyl]phenyl}sulfonyl)(3-methylbutyl)amino]hexyl}-4-fluoro-β-(4-fluorophenyl)-L-phenylalaninamide hydrochloride] |  | 8 | 0.01
21 | CC[C@@H](CCC[C@@H](CO)N(CC(C)C)S(=O)(=O)c1ccc(CO)cc1)NC(=O)[C@@H](NC(=O)OC)C(c1ccccc1)c1ccccc1 [Example J19, N-{(1S,5S)-1-ethyl-6-hydroxy-5-[{[4-(hydroxymethyl)phenyl]sulfonyl}(isobutyl)amino]hexyl]-Nα-(methoxycarbonyl)-β-phenyl-L-phenylalaninamide] | 0.034 | 11 | 
